Values of other authors in patent US20180116967A1, “EXTENDED RELEASE TABLET OF CYCLOBENZAPRINE” (SYNMOSA BIOPHARMA CORPORATION, priority 2015, published 2018).

Test system: plasma protein

drug coupled to plasma protein: About 93%
SMILES: CN(C)CCC=C1c2ccccc2C=Cc2ccccc21 [cyclobenzaprine, 3-(5H-dibenzo[a,d]cyclohepten-5-ylidene)-N,N-dimethyl-1-propanamine]
